Tests used:
[1] = tested on: other four DA receptor subtypes; assay: Binding to the other DA receptor subtypes; details: result in words
righting reflex = assay: Righting test (sedation); type: in vivo; details: rats, following CLP and bar tests
D2R [2] = biological target: T1, D2R (Homo sapiens, UniProt P14416); assay: cell-based; type: cell-based; details: for recruitment of β-arrestin-2 to the D2R: result in words; for Emax: normalized to vehicle (0%) and quinpirole (100%), read-out: β-Arrestin Emax
[3] = tested on: apomorphine (APO)-induced climbing behavior; details: for mice exhibiting inhibition of climbing: at higher dosages of each agent
catalepsy = assay: Catalepsy bar test
[4] = Pharmacokinetics, plasma and brain levels by HPLC-PDA; details: for half-life: t1/2, elimination
D2R [5] = biological target: T1, D2R; type: binding

T1 sequence (P14416 whole entry): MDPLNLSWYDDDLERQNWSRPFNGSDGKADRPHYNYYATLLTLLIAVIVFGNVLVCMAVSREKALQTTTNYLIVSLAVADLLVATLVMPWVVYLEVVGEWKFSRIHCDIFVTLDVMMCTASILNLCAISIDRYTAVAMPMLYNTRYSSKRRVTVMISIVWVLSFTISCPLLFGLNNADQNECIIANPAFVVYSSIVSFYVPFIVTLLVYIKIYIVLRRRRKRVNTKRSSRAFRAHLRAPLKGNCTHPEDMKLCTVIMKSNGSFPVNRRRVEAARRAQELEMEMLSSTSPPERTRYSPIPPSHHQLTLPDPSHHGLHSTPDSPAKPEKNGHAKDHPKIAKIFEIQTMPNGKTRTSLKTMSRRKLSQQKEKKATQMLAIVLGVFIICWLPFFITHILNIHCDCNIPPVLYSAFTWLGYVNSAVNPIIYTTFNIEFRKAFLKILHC

In the case of `Br.Br.Br.c1cnc(N2CCN(CCCc3nc4ccccc4s3)CC2)nc1` [Compound 28, 2-(3-(4-(Pyrimidin-2-yl)piperazin-1-yl)propyl)benzo[d]thiazole trihydrobromide], the “binding affinity to the other four DA receptor subtypes” value [1] is reported as “little or no binding affinity”.
In the case of `Fc1ccc(CCCCN2CCN(c3ccccn3)CC2)cc1` [SYA16263], the “righting after catalepsy testing” value (righting reflex) is reported as “all rats were observed to right themselves”, the “recruitment of β-arrestin-2 to the D2R” value (D2R [2]) is reported as “promotes D2-mediated β-arrestin-2 translocation” and the “mice exhibiting inhibition of climbing” value [3] is reported as roughly 100%. The “mean time on bar” value (catalepsy; rats, up to 239 μmole/kg (75 mg/kg), 19×ED50apom, no catalepsy) was less than 20 s, the AUC0-t ([4]; brain, rats, ip 50 mg/kg) was 86 μg · h/(mL or g) and the tmax ([4]; brain, rats, ip 50 mg/kg) was 10 min. For the same compound, the AUC0-t ([4]; plasma, rats, ip 50 mg/kg) was 5.4 μg · h/(mL or g), the Cplasma ([4]; plasma, rats, ip 50 mg/kg, used for BB) was 5.23 and the Cmax ([4]; rat, in vivo, ip, 50 mg/kg) was 63500 ng/g. The tmax ([4]; rat, in vivo, ip, 50 mg/kg) was 10.2 min, the Kp at 10 min ([4]; rat, in vivo, ip, 50 mg/kg, BB=Cbrain/Cplasma, rats, ip 50 mg/kg, at ~equilibrium point) was 12.1 and the half-life ([4]; rat, in vivo, ip, 50 mg/kg, brain, rats, ip 50 mg/kg) was 174 to 186 min. The half-life ([4]; rat, in vivo, ip, 50 mg/kg, plasma, rats, ip 50 mg/kg) was 44.4 to 58.8 min, the “Log BB” value ([4]; rats, ip 50 mg/kg) was 1.08 and the “brain concentration at 24-hour point” value ([4]; rats, ip 50.0 mg/kg, 24 h) was “near or below the detection limit”. The “plasma concentration at 24-hour point” value ([4]; rats, ip 50.0 mg/kg, 24 h) was “below the detection limit”.
For `O=C(CCCN1CCC(O)(c2ccc(Cl)cc2)CC1)c1ccc(F)cc1` [haloperidol], the “mice exhibiting inhibition of climbing” value [3] was roughly 100%, the “antipsychotic activity in animal models of schizophrenia (FIG. 10A)” value ([3]; result in words) was “dose-dependent antipsychotic activity” and the “catalepsy at 6×ED50 (FIG. 10B)” value (catalepsy; 6×ED50 values, result in words) was “significant catalepsy”.
For `Fc1ccc(OCCCN2CCN(c3ccccn3)CC2)cc1` [SYA16264], the “righting after catalepsy testing” value (righting reflex) was “All rats righted themselves”, the Emax (D2R [2]) was 75.7% and the “mean time on bar” value (catalepsy; male, Sprague-Dawley, rat, in vivo, 60 min) was less than 20 s.
For `Fc1ccc(CCCCN2CCN(c3ccc(Cl)cc3)CC2)cc1` [SYA16267], the Ki (D2R [5]) was 284 ± 21 nM, the Emax (D2R [2]) was 5.1% and the “recruitment of β-arrestin-2 to the D2R” value (D2R [2]) was “significant loss of the ability”. It also gave an EC50 (D2R [2]; β-arrestin-2 recruitment to D2R) of 248 nM.
For `Fc1ccc(CCCCN2CCN(c3ncccn3)CC2)cc1` [SYA16268], the Emax (D2R [2]) was 71.9%.

Source: patent US11129831B2, “Identification of agents displaying functional activation of dopamine D2 and D4 receptors” (Florida A&M University, priority 2017, dated 2021)
